This test has as its system MV-4-11 cells. Kind of test: Gene expression microarray analysis (Affymetrix PrimeView) and GSEA. The format is cell-based, human. Details: RFU PODN (11730768_x_at) / Fold change /veh PODN (11730768_x_at) / RFU LINC00158 (11744669_a_at) / Fold change /veh LINC00158 (11744669_a_at) / RFU DUSP10 (11751237_a_at) / Fold change /veh DUSP10 (11751237_a_at) / RFU ID3 (11757404_x_at) / Fold change /veh ID3 (11757404_x_at) / RFU PLEKHG5 (11737974_s_at) / Fold change /veh PLEKHG5 (11737974_s_at) / RFU LRRC4B (11730491_at) / Fold change /veh LRRC4B (11730491_at) / RFU GIMAP4 (11747438_a_at) / Fold change /veh GIMAP4 (11747438_a_at) / RFU KRT8 (11758183_x_at) / Fold change /veh KRT8 (11758183_x_at) / RFU CNN1 (11734310_a_at) / Fold change /veh CNN1 (11734310_a_at) / RFU VPS37D (11726825_at) / Fold change /veh VPS37D (11726825_at) / RFU C10orf10 (11716522_x_at) / Fold change /veh C10orf10 (11716522_x_at) / RFU KIR2DL2 /// KIR2DL4 /// KIR2DL5A /// KIR2DL5B /// KIR2DS1 /// KIR2DS2 /// KIR2DS3 /// KIR2DS4 /// KIR3DL3 /// KIR3DL3 /// KIR3DS1 (11738374_at) / Fold change /veh KIR2DL2 /// KIR2DL4 /// KIR2DL5A /// KIR2DL5B /// KIR2DS1 /// KIR2DS2 /// KIR2DS3 /// KIR2DS4 /// KIR3DL3 /// KIR3DL3 /// KIR3DS1 (11738374_at) / RFU C1QL1 (11718748_at) / Fold change /veh C1QL1 (11718748_at) / RFU TMPRSS4 (11747572_a_at) / Fold change /veh TMPRSS4 (11747572_a_at) / RFU HAMP (11756126_x_at) / Fold change /veh HAMP (11756126_x_at) / RFU RNFT2 (11725882_a_at) / Fold change /veh RNFT2 (11725882_a_at) / RFU NR4A2 (11747474_a_at) / Fold change /veh NR4A2 (11747474_a_at) / RFU ABCC12 (11746883_a_at) / Fold change /veh ABCC12 (11746883_a_at) / RFU TMEM136 (11760407_x_at) / Fold change /veh TMEM136 (11760407_x_at) / RFU CLDN22 /// WWC2 (11732394_at) / Fold change /veh CLDN22 /// WWC2 (11732394_at) / RFU HLA-DPB1 (11760878_x_at) / Fold change /veh HLA-DPB1 (11760878_x_at) / RFU SPINT1 (11716480_a_at) / Fold change /veh SPINT1 (11716480_a_at) / RFU GAP43 (11754022_s_at) / Fold change /veh GAP43 (11754022_s_at) / RFU A4GNT (11735810_at) / Fold change /veh A4GNT (11735810_at) / RFU PRB3 (11715151_x_at) / Fold change /veh PRB3 (11715151_x_at) / RFU TUBB4B (11761932_at) / Fold change /veh TUBB4B (11761932_at) / RFU CAPN14 (11732068_a_at) / Fold change /veh CAPN14 (11732068_a_at) / RFU TMCC2 (11721928_a_at) / Fold change /veh TMCC2 (11721928_a_at) / RFU IRGQ (11745062_a_at) / Fold change /veh IRGQ (11745062_a_at) / RFU FAM174B (11720279_a_at) / Fold change /veh FAM174B (11720279_a_at) / RFU TMPRSS4 (11748680_a_at) / Fold change /veh TMPRSS4 (11748680_a_at) / RFU FAM212B (11763350_a_at) / Fold change /veh FAM212B (11763350_a_at) / RFU PLEKHG5 (11743358_a_at) / Fold change /veh PLEKHG5 (11743358_a_at) / RFU ZSCAN30 (11745921_a_at) / Fold change /veh ZSCAN30 (11745921_a_at) / RFU CMKLR1 (11741424_a_at) / Fold change /veh CMKLR1 (11741424_a_at) / RFU LOC101060620 /// MAPK8IP1 (11723275_at) / Fold change /veh LOC101060620 /// MAPK8IP1 (11723275_at) / RFU SPTSSB (11747773_x_at) / Fold change /veh SPTSSB (11747773_x_at) / RFU PRSS12 (11739890_at) / Fold change /veh PRSS12 (11739890_at) / RFU BIN1 (11741810_x_at) / Fold change /veh BIN1 (11741810_x_at) / RFU WNT11 (11732464_a_at) / Fold change /veh WNT11 (11732464_a_at) / RFU C10orf10 (11716521_a_at) / Fold change /veh C10orf10 (11716521_a_at) / RFU C5orf56 (11738089_at) / Fold change /veh C5orf56 (11738089_at) / RFU CYB561 (11721691_x_at) / Fold change /veh CYB561 (11721691_x_at) / RFU ANKRD19P (11752326_a_at) / Fold change /veh ANKRD19P (11752326_a_at) / RFU OR2T12 /// OR2T33 /// OR2T8 (11738714_s_at) / Fold change /veh OR2T12 /// OR2T33 /// OR2T8 (11738714_s_at) / RFU VCAN (11748164_a_at) / Fold change /veh VCAN (11748164_a_at) / RFU JSRP1 (11732532_at) / Fold change /veh JSRP1 (11732532_at) / RFU KRTAP10-11 (11738290_x_at) / Fold change /veh KRTAP10-11 (11738290_x_at) / RFU MYO3A (11730013_a_at) / Fold change /veh MYO3A (11730013_a_at) / RFU EBF3 (11725865_a_at) / Fold change /veh EBF3 (11725865_a_at) / RFU CAMK2N1 (11719241_x_at) / Fold change /veh CAMK2N1 (11719241_x_at) / RFU C5orf56 (11738088_a_at) / Fold change /veh C5orf56 (11738088_a_at) / RFU OLFML3 (11715873_a_at) / Fold change /veh OLFML3 (11715873_a_at) / RFU LOC100653217 /// NTM (11731650_a_at) / Fold change /veh LOC100653217 /// NTM (11731650_a_at) / RFU MAPK11 (11762145_a_at) / Fold change /veh MAPK11 (11762145_a_at) / RFU FIZ1 (11724087_x_at) / Fold change /veh FIZ1 (11724087_x_at) / RFU OASL (11726364_x_at) / Fold change /veh OASL (11726364_x_at) / RFU SOX15 (11748057_x_at) / Fold change /veh SOX15 (11748057_x_at) / RFU CD79A (11719716_a_at) / Fold change /veh CD79A (11719716_a_at) / RFU HIST1H1D (11736915_at) / Fold change /veh HIST1H1D (11736915_at) / RFU CASKIN2 (11723855_a_at) / Fold change /veh CASKIN2 (11723855_a_at) / RFU LOC730098 (11760151_x_at) / Fold change /veh LOC730098 (11760151_x_at) / RFU OR4N2 (11742367_at) / Fold change /veh OR4N2 (11742367_at) / RFU PRRT2 (11749266_a_at) / Fold change /veh PRRT2 (11749266_a_at) / RFU SNX32 (11753110_a_at) / Fold change /veh SNX32 (11753110_a_at) / RFU CDHR5 (11726645_a_at) / Fold change /veh CDHR5 (11726645_a_at) / RFU RCAN1 (11760418_a_at) / Fold change /veh RCAN1 (11760418_a_at) / RFU FAM167A (11723789_a_at) / Fold change /veh FAM167A (11723789_a_at) / RFU FAM26E (11764081_at) / Fold change /veh FAM26E (11764081_at) / RFU ISYNA1 (11749810_s_at) / Fold change /veh ISYNA1 (11749810_s_at) / RFU ACY1 (11761880_at) / Fold change /veh ACY1 (11761880_at) / RFU 11764098_at / Fold change /veh 11764098_at / RFU SAMD14 (11745864_x_at) / Fold change /veh SAMD14 (11745864_x_at) / RFU NPB (11741838_a_at) / Fold change /veh NPB (11741838_a_at) / RFU TMPRSS6 (11731388_a_at) / Fold change /veh TMPRSS6 (11731388_a_at) / RFU KRTAP10-2 (11738614_at) / Fold change /veh KRTAP10-2 (11738614_at) / RFU ARHGAP8 /// PRR5-ARHGAP8 (11727945_x_at) / Fold change /veh ARHGAP8 /// PRR5-ARHGAP8 (11727945_x_at) / RFU KRTAP5-7 /// NADSYN1 (11734609_at) / Fold change /veh KRTAP5-7 /// NADSYN1 (11734609_at) / RFU RASL12 (11751679_a_at) / Fold change /veh RASL12 (11751679_a_at) / RFU CDKN2B (11736163_a_at) / Fold change /veh CDKN2B (11736163_a_at) / RFU PRF1 (11729649_at) / Fold change /veh PRF1 (11729649_at) / RFU, ZNF638 /// ZNF638-IT1 / Fold change vs veh, ZNF638 /// ZNF638-IT1 / RFU, PANK3 / Fold change vs veh, PANK3 / RFU, SH3YL1 / Fold change vs veh, SH3YL1 / RFU, ZEB2 / Fold change vs veh, ZEB2 / RFU, NRIP1 / Fold change vs veh, NRIP1 / RFU, PTTG1IP / Fold change vs veh, PTTG1IP / RFU, CAPN2 / Fold change vs veh, CAPN2 / RFU, MED14 / Fold change vs veh, MED14 / RFU, SNORA58 / Fold change vs veh, SNORA58 / RFU, C1orf63 / Fold change vs veh, C1orf63 / RFU, LRRFIP1 / Fold change vs veh, LRRFIP1 / RFU, NDUFAF7 / Fold change vs veh, NDUFAF7 / RFU, SLC12A2 / Fold change vs veh, SLC12A2 / RFU, IBTK / Fold change vs veh, IBTK / RFU, ESF1 / Fold change vs veh, ESF1 / Fold change vs veh, TMEM50B / RFU, TAOK1 / Fold change vs veh, TAOK1 / RFU, ACBD3 / Fold change vs veh, ACBD3 / RFU, TMA16 / Fold change vs veh, TMA16 / RFU, RWDD3 / Fold change vs veh, RWDD3 / RFU, BCAT1 / Fold change vs veh, BCAT1 / RFU, EDEM3 / Fold change vs veh, EDEM3 / RFU, TMEM33 / Fold change vs veh, TMEM33 / RFU, WDR75 / Fold change vs veh, WDR75 / RFU, AHCTF1 / Fold change vs veh, AHCTF1 / RFU, TFRC / Fold change vs veh, TFRC / RFU, ZDHHC17 / Fold change vs veh, ZDHHC17 / RFU, NOM1 / Fold change vs veh, NOM1 / RFU, ARL8B / Fold change vs veh, ARL8B / RFU, ZBTB11 / Fold change vs veh, ZBTB11 / RFU, TAMM41 / Fold change vs veh, TAMM41 / RFU, KIAA1704 /// LOC100996395 / Fold change vs veh, KIAA1704 /// LOC100996395 / RFU, ING1 / Fold change vs veh, ING1 / RFU, TRMT61B / Fold change vs veh, TRMT61B / RFU, FUBP3 / Fold change vs veh, FUBP3 / RFU, TP53 / Fold change vs veh, TP53 / RFU, TNKS2 / Fold change vs veh, TNKS2 / RFU, ZFP14 / Fold change vs veh, ZFP14 / RFU, ACTR2 / Fold change vs veh, ACTR2 / RFU, PPP3R1 / Fold change vs veh, PPP3R1 / RFU, PIK3R1 / Fold change vs veh, PIK3R1 / RFU, HNRNPA1 / Fold change vs veh, HNRNPA1 / RFU, RNF170 / Fold change vs veh, RNF170 / RFU, ZNF28 / Fold change vs veh, ZNF28 / RFU, RNGTT / Fold change vs veh, RNGTT / RFU, OGT / Fold change vs veh, OGT / RFU, BRD1 / Fold change vs veh, BRD1 / RFU, MARS / Fold change vs veh, MARS / RFU, ZNF655 / Fold change vs veh, ZNF655 / RFU, FAHD1 / Fold change vs veh, FAHD1 / RFU, BDP1 / Fold change vs veh, BDP1 / RFU, LRRCC1 / Fold change vs veh, LRRCC1 / RFU, ARID1A / Fold change vs veh, ARID1A / RFU, ZNF146 / Fold change vs veh, ZNF146 / RFU, ZNF330 / Fold change vs veh, ZNF330 / RFU, GPN3 / Fold change vs veh, GPN3 / RFU, C9orf123 / Fold change vs veh, C9orf123 / RFU, N4BP2L2 / Fold change vs veh, N4BP2L2 / RFU, ARFIP1 / Fold change vs veh, ARFIP1 / RFU, FAM179B / Fold change vs veh, FAM179B / RFU, BCL10 / Fold change vs veh, BCL10 / RFU, UHRF1BP1L / Fold change vs veh, UHRF1BP1L / RFU, BET1 / Fold change vs veh, BET1 / RFU, CNOT2 / Fold change vs veh, CNOT2 / RFU, ZNF268 / Fold change vs veh, ZNF268 / Fold change vs veh, ZNF507 / RFU, DGCR2 / Fold change vs veh, DGCR2 / RFU, WDSUB1 / Fold change vs veh, WDSUB1 / Fold change vs veh, HSP90B1 /// MIR3652 / RFU, ADSS / Fold change vs veh, ADSS / RFU, GK / Fold change vs veh, GK / RFU, ZNF148 / Fold change vs veh, ZNF148 / RFU, TAF9 / Fold change vs veh, TAF9 / RFU, SLC1A5 / Fold change vs veh, SLC1A5 / RFU, SLMO2 / Fold change vs veh, SLMO2 / RFU, ABCC4 / Fold change vs veh, ABCC4 / RFU, LOC101060439 /// RAP1B / Fold change vs veh, LOC101060439 /// RAP1B / RFU, RFX7 / Fold change vs veh, RFX7 / RFU, GTPBP10 / Fold change vs veh, GTPBP10 / RFU, CNEP1R1 / Fold change vs veh, CNEP1R1 / RFU, BIVM-ERCC5 /// ERCC5 / Fold change vs veh, BIVM-ERCC5 /// ERCC5 / RFU, ILF3 / Fold change vs veh, ILF3 / RFU 11762660_at / Fold change /veh 11762660_at / RFU VCAN (11757783_s_at) / Fold change /veh VCAN (11757783_s_at) / RFU DDX43 (11728927_at) / Fold change /veh DDX43 (11728927_at) / RFU KRT8 (11758188_x_at) / Fold change /veh KRT8 (11758188_x_at) / RFU NKD1 (11759106_at) / Fold change /veh NKD1 (11759106_at) / RFU SRD5A1 (11742802_a_at) / Fold change /veh SRD5A1 (11742802_a_at) / RFU TPSAB1 /// TPSB2 (11721975_s_at) / Fold change /veh TPSAB1 /// TPSB2 (11721975_s_at) / RFU GSTM3 (11746129_a_at) / Fold change /veh GSTM3 (11746129_a_at) / RFU IL23R (11737362_x_at) / Fold change /veh IL23R (11737362_x_at) / RFU TMEM51 (11727254_a_at) / Fold change /veh TMEM51 (11727254_a_at) / RFU PIWIL2 (11732686_x_at) / Fold change /veh PIWIL2 (11732686_x_at) / RFU ORM1 (11744905_x_at) / Fold change /veh ORM1 (11744905_x_at) / RFU CCDC152 (11743942_at) / Fold change /veh CCDC152 (11743942_at) / RFU ECM1 (11717891_a_at) / Fold change /veh ECM1 (11717891_a_at) / RFU IL23R (11748794_a_at) / Fold change /veh IL23R (11748794_a_at) / RFU TNFAIP8L3 (11732012_x_at) / Fold change /veh TNFAIP8L3 (11732012_x_at) / RFU MBOAT4 (11741988_at) / Fold change /veh MBOAT4 (11741988_at) / RFU 11764193_at / Fold change /veh 11764193_at / RFU TMEM53 (11763286_at) / Fold change /veh TMEM53 (11763286_at) / RFU MAGEB2 (11727129_at) / Fold change /veh MAGEB2 (11727129_at) / RFU TMEM200A (11744735_a_at) / Fold change /veh TMEM200A (11744735_a_at) / RFU CCDC152 (11751479_a_at) / Fold change /veh CCDC152 (11751479_a_at) / RFU FAM211A (11726209_a_at) / Fold change /veh FAM211A (11726209_a_at) / RFU RGS16 (11746705_a_at) / Fold change /veh RGS16 (11746705_a_at) / RFU VCAN (11755009_s_at) / Fold change /veh VCAN (11755009_s_at) / RFU RHOB (11743442_s_at) / Fold change /veh RHOB (11743442_s_at) / RFU RGS16 (11720943_a_at) / Fold change /veh RGS16 (11720943_a_at) / RFU RGS16 (11720944_at) / Fold change /veh RGS16 (11720944_at) / RFU, VPS4B / Fold change vs veh, VPS4B / RFU, CREB1 / Fold change vs veh, CREB1 / RFU, DNAJC13 / Fold change vs veh, DNAJC13 / RFU, GNAQ / Fold change vs veh, GNAQ / RFU, CDK5R1 / Fold change vs veh, CDK5R1 / RFU, ZRANB3 / Fold change vs veh, ZRANB3 / RFU, CUL4A / Fold change vs veh, CUL4A / RFU, CCNY / Fold change vs veh, CCNY / RFU, UFL1 / Fold change vs veh, UFL1 / RFU, COG3 / Fold change vs veh, COG3 / RFU, DIAPH2 / Fold change vs veh, DIAPH2 / RFU, SKA2 / Fold change vs veh, SKA2 / RFU, AFF3 / Fold change vs veh, AFF3 / RFU, LMF1 / Fold change vs veh, LMF1 / RFU, IPO11 / Fold change vs veh, IPO11 / RFU, DFFB / Fold change vs veh, DFFB / RFU, FOXP1 / Fold change vs veh, FOXP1 / RFU, CARD8 / Fold change vs veh, CARD8 / RFU, STRN3 / Fold change vs veh, STRN3 / RFU, ADK / Fold change vs veh, ADK / RFU, RASSF2 / Fold change vs veh, RASSF2 / RFU, WIPF1 / Fold change vs veh, WIPF1 / RFU, LARP1B / Fold change vs veh, LARP1B / RFU, RASA1 / Fold change vs veh, RASA1 / RFU, RB1 / Fold change vs veh, RB1 / RFU, PPFIA1 / Fold change vs veh, PPFIA1 / RFU, MAT2A / Fold change vs veh, MAT2A / RFU, CCT5 / Fold change vs veh, CCT5 / RFU, WDR92 / Fold change vs veh, WDR92 / RFU, CUX1 / Fold change vs veh, CUX1 / RFU, TTC7A / Fold change vs veh, TTC7A / RFU, TMEM135 / Fold change vs veh, TMEM135 / RFU, DEPTOR / Fold change vs veh, DEPTOR / RFU, CPM / Fold change vs veh, CPM / RFU, DNAJB6 / Fold change vs veh, DNAJB6 / RFU, CACNA2D3 / Fold change vs veh, CACNA2D3 / RFU, DTX4 / Fold change vs veh, DTX4 / RFU, TFCP2 / Fold change vs veh, TFCP2 / RFU, GMCL1 /// GMCL1P1 / Fold change vs veh, GMCL1 /// GMCL1P1 / RFU, AEBP2 / Fold change vs veh, AEBP2 / RFU, SNHG1 /// SNORD22 /// SNORD25 /// SNORD26 /// SNORD27 /// SNORD28 /// SNORD29 /// SNORD31 / Fold change vs veh, SNHG1 /// SNORD22 /// SNORD25 /// SNORD26 /// SNORD27 /// SNORD28 /// SNORD29 /// SNORD31 / Fold change (Aza/veh), C12orf56 (ProbeSet 11735607_a_at) / Fold change (ACY-1035/veh), C12orf56 (ProbeSet 11735607_a_at) / Fold change (Aza/veh), FGFR1OP (ProbeSet 11751329_s_at) / Fold change (ACY-1035/veh), FGFR1OP (ProbeSet 11751329_s_at) / Fold change (Aza/veh), VPS36 (ProbeSet 11739960_a_at) / Fold change (ACY-1035/veh), VPS36 (ProbeSet 11739960_a_at) / RFU SYPL1 (11715823_x_at) / Fold change /veh SYPL1 (11715823_x_at) / RFU IGFBP7 (11715501_s_at) / Fold change /veh IGFBP7 (11715501_s_at) / RFU REEP3 (11722064_at) / Fold change /veh REEP3 (11722064_at) / RFU IGLL1 (11728026_x_at) / Fold change /veh IGLL1 (11728026_x_at): dose or concentration left out as unconfirmed. Particulars: ProbeSet 11754362_a_at; LIST D.

On to `Nc1ncn([C@@H]2O[C@H](CO)[C@@H](O)[C@H]2O)c(=O)n1` [azacitidine], for which the “Fold change vs veh, TTC7A” value is 0.72.

These data come from paper PMC5218480 (PLoS ONE, 2017).
